Assay results as given in patent publication US20240245696A1, “INHIBITORS OF DNA PK AND USES THEREOF” (BioVentures, LLC, priority 2017, published 2024).
“Also recorded” adds a separate entry of the source.

Tests used:
[1] = system: Jurkat cells; assay: Cell viability assay (CELLTITER 96 AQUEOUS One) in Jurkat cells; type: cell-based, human; conditions: NU7441 at varying concentrations, 48 hours
Method: (§1) Cell Culture: Human peripheral blood mononuclear cells (PBMC,) and Jurkat cells were purchased from ATCC (PCS-800-011, Manassas, VA). Cells were maintained at 37° C. in a humidified atmosphere composed of 5% CO2. Jurkat cells were cultured in RPMI 1640 medium which was supplemented with 10% FCS and human PBMC was cultured in RPMI 1640 medium which was supplemented with 10% FCS and pen/strep. Both Jurkat cells and PBMC were stimulated with PHA (50 ng/mL) and PMA (1 μg/mL) for 24 hours prior to harvesting for IL-2 detection or 6 hours prior for western blot analysis. The NU7441 DNA-PKcs inhibitor was added at varying concentrations at the time of stimulation. Cell viability assay: Cell viability assay was performed using Promega CELLTITER 96 AQUEOUS One Solution Cell Proliferation Assay (Madison, WI) and following the manufacturer's protocol. Briefly, 100 μL of PBMC or Jurkat cells were plated in a 96-well plate and treated with various concentration of NU7441 for 48 hours. CELLTITER solution (20 μL/100 μL of cell suspension) was added to the cells and the plate was incubated for 3 hours at 37° C. and the absorbance at 490 nm was recorded using SynergyHTX (BioTek, Winooski, VT) plate reader.

[2] = system: PBMC; assay: Cell viability assay (CELLTITER 96 AQUEOUS One) in PBMC; type: cell-based, human; conditions: various concentrations, 48 hours
Method: as §1

[3] = system: NFAT; assay: Immunofluorescence of NFAT nuclear translocation in Jurkat cells; type: cell-based, human; set-up: dose or concentration left out as unconfirmed; conditions: Jurkat activated with PMA+PHA, inhibitor
Method: Immunofluorescence of NFAT: Jurkat cells were plated in poly-lysine treated 35 mm dish with glass-bottom (BioTek) overnight. The cells were fixed with 4% formaldehyde and permeabilized with permeabilization solution (0.2% TRITON X-100+OVA solution (0.1 mg/mL), 0.01% sodium azide). NFAT was probed with anti-NFAT2 (ab2796, Abcam) in permeabilization solution overnight at 4° C., and then washed with PBS. Fluorescein (FITC)-conjugated AffiniPure Donkey Anti-Mouse IgG (715-095-151, Jackson ImmunoResearch) was applied to the cells for 1 hour at room temperature. The cells were washed with PBS and ProLong Antifade reagent with DAPI (Molecular Probes) was applied. All samples were analyzed on an Olympus Fluoview FV1000 laser confocal microscope. Images from all microscopy experiments were processed using the FV10-ASW 3.1 Viewer (Olympus).

[4] = system: calcineurin; assay: Calcineurin Cellular Activity Assay in Jurkat cell lysates; type: cell-based, human; conditions: Jurkat activated with PMA+PHA, NU7441 2.5 µM
Description: (§2) Detection of calcineurin and mTOR activities: Calcineurin phosphatase activity was detected by Calcineurin Cellular Activity Assay Kit from Millipore (Billerica, MA) and mTOR signaling was detected by Calcium Detection Kit from Abcam (Cambridge, MA). The manufacturer's protocols were followed. Briefly, Jurkat cells (2 million cells/mL) were lysed using lysis buffer. For calcineurin activity, the cell lysates were desalted by gel filtration to remove free phosphates before the assay and were subjected to calcineurin activity assay. The absorbance of each sample was read at 620 nm using the plate reader. For mTOR ELISA assay, the cell lysates were added to each well and antibody against phosphorylated mTOR at serine 2448 was used to detect the activity of mTOR signaling. The absorbance of each sample was read at 450 nm using the plate reader.

[5] = system: Ca^2+; assay: Calcium ion measurement in Jurkat cell lysates; type: cell-based, human; conditions: Jurkat cell lysates following activation with PMA+PHA
Method: Measurements of calcium ions: Intracellular concentration of calcium ions was measured by Calcium Detection Assay Kit from Abcam (Cambridge, MA). The manufacturer's protocols were followed. Briefly, Jurkat cells (2 million cells/mL) were lysed using cold PBS with 0.1% NP-40. The cell lysates were diluted 10 times before use. After following the assay protocol, the absorbance of each sample was read at 575 nm using the plate reader.

[6] = system: mTOR; assay: mTOR (phospho-ser2448) ELISA and western blot in activated Jurkat cells; type: cell-based, human
Method: Western blot analysis: Nuclear extract lysates were separated on 3-8% Tris-Acetate gels (Invitrogen). Total cell lysates were separated on 4-20% Tris-Glycine gels (Bio-Rad). Gels were transferred onto PVDF membrane (Millipore) for 2 hours in the cold room at 100V. Immunoblotting was performed using following antibodies: pDNA-PKcs at S2056 (ab18192, Abcam), DNAPK (ab53701, Abcam), pNFAT2 at S237 (ab183023, Abcam), CABIN1 (12660S, Cell signaling), GAPDH (MAB374, Millipore), and Lamin B1 (ab16048, Abcam). HRP-conjugated secondary antibody anti-Rabbit and anti-Mouse (7074S and 7076S, Cell Signaling) was used.
as §2, with “For mTOR ELISA assay, the cell lysates were added to each well and antibody against phosphorylated mTOR at serine 2448 was used to detect the activity of mTOR signaling.” left out

[7] = system: Th17 T cells; assay: qPCR on T cell markers, Th17 differentiation of naïve CD4+ T cells; type: cell-based; conditions: naïve CD4+ T cells from mouse spleens
Method: qPCR on T cell markers: Naïve CD4+ T cells were isolated by standard methods from the spleens of Balbc mice. T cells were grown in culture and treated with cytokines specific for differentiate into Th1 and Th17 subtypes. Additionally, T cells were cultured with NU7441 and FK506. qPCR was performed looking at the following markers: Batf3, RORyt, IL17, IL22, TGFBeta, Lymphotoxin, T-Bet.

O=c1cc(N2CCOCC2)oc2c(-c3cccc4c3sc3ccccc34)cccc12 [NU7441]
viability of Jurkat cells [1]: did not alter the viability; also recorded: no significant reduction in viability | cellular viability of PBMC [2]: did not affect cellular viability; also recorded: does not reduce cell viability | nuclear localization of NFAT [3]: nuclear localization was prevented; also recorded: blocked translocation of NFAT to the nucleus | calcineurin phosphatase activity [4]: significantly inhibited; also recorded: significant reduction in calcineurin activity | concentration of Ca^2+ ions [5]: no change; also recorded: not affected | mTOR activation (phosphorylated ser2448) [6]: did not alter mTOR activation; also recorded: does not alter mTOR activation | Th17 differentiation (markers Batf3, RoRyt, IL22, TGFBeta, IL17) [7]: suppressing a Th17 environment
